Measurements taken from DBAASP.
Converted amounts (≈) assume the structure as drawn. “And” between values parts separate entries of the source, which are not always exact repeats. Equal entries are not always repeated.

Experiments:
Assay in all cases: ≥ marks a high value that may be exact or a test limit, other limits are often not marked, values filed in µg/mL are converted to µM
[1] = system: Pseudomonas aeruginosa Ps4
[2] = system: Pseudomonas aeruginosa PAO1
[3] = system: Staphylococcus aureus ATCC 25923
[4] = system: Pseudomonas aeruginosa ATCC 27853
[5] = system: Escherichia coli ML-35p
[6] = system: Staphylococcus aureus ATCC 43300
[7] = system: Pseudomonas aeruginosa CMCCB 10104
[8] = system: Escherichia coli
[9] = system: Escherichia coli ATCC 25922
[10] = system: Pseudomonas aeruginosa
[11] = system: Salmonella typhimurium
[12] = system: Klebsiella pneumoniae
[13] = system: Escherichia coli DH5alpha
[14] = system: Micrococcus luteus ATCC 9341
[15] = system: Aspergillus fumigatus
[16] = system: Staphylococcus aureus
[17] = system: Staphylococcus aureus ATCC 6538P
[18] = system: Escherichia coli JM109
[19] = system: Escherichia coli JW0013

Structure (SMILES): CC(C)[C@H](NC(=O)[C@H](CCCCN)NC(=O)[C@H](CCCN=C(N)N)NC(=O)[C@H](Cc1ccccc1)NC(=O)[C@H](CC(N)=O)NC(=O)[C@H](CCCN=C(N)N)NC(=O)[C@H](CCC(N)=O)NC(=O)[C@H](Cc1c[nH]c2ccccc12)NC(=O)[C@@H](N)Cc1ccccc1)C(=O)N[C@@H](CCCN=C(N)N)C(N)=O [FWQRNFRKVR]
- MIC [1]: ≥ 174 µM

Structure (SMILES): CC[C@H](C)[C@H](NC(=O)[C@H](CC(N)=O)NC(=O)[C@H](CCCN=C(N)N)NC(=O)[C@H](CCC(N)=O)NC(=O)[C@H](Cc1c[nH]c2ccccc12)NC(=O)[C@@H](N)Cc1ccccc1)C(=O)N[C@@H](CCCCN)C(=O)N[C@H](C(=O)N[C@@H](CCCN=C(N)N)C(N)=O)C(C)C [FWQRNIKVR]
- MIC [1]: ≥ 201 µM

Structure (SMILES): CC[C@H](C)[C@H](NC(=O)[C@H](CC(N)=O)NC(=O)[C@H](CCCN=C(N)N)NC(=O)[C@H](CCC(N)=O)NC(=O)[C@H](Cc1c[nH]c2ccccc12)NC(=O)[C@@H](N)Cc1ccccc1)C(=O)N[C@@H](CCCN=C(N)N)C(=O)N[C@@H](CCCCN)C(=O)N[C@@H](Cc1ccccc1)C(=O)N[C@@H](CCCN=C(N)N)C(N)=O [FWQRNIRKFR]
- MIC [1]: ≥ 172 µM

Structure (SMILES): CC[C@H](C)[C@H](NC(=O)[C@H](CC(N)=O)NC(=O)[C@H](CCCN=C(N)N)NC(=O)[C@H](CCC(N)=O)NC(=O)[C@H](Cc1c[nH]c2ccccc12)NC(=O)[C@@H](N)Cc1ccccc1)C(=O)N[C@@H](CCCN=C(N)N)C(=O)N[C@@H](CCCCN)C(=O)N[C@H](C(=O)N[C@@H](CCCCN)C(=O)N[C@@H](CCCCN)C(=O)N[C@@H](CCCCN)C(=O)N[C@@H](CCCCN)C(N)=O)C(C)C [FWQRNIRKVKKKK]
- MIC [1]: ≥ 142 µM

Structure (SMILES): NC(=O)C[C@H](NC(=O)[C@H](CCCN=C(N)N)NC(=O)[C@H](CCCN=C(N)N)NC(=O)[C@H](Cc1c[nH]c2ccccc12)NC(=O)[C@@H](N)Cc1ccccc1)C(=O)N[C@@H](Cc1ccccc1)C(=O)N[C@@H](Cc1c[nH]c2ccccc12)C(=O)N[C@@H](CCCN=C(N)N)C(=O)N[C@@H](CCCN=C(N)N)C(N)=O [FWRRNFWRR]
- MIC [1]: ≥ 176 µM

Structure (SMILES): NC(=O)[C@H](CCCN=C(N)N)NC(=O)[C@H](Cc1c[nH]c2ccccc12)NC(=O)[C@H](CCCN=C(N)N)NC(=O)[C@H](Cc1c[nH]c2ccccc12)NC(=O)[C@H](CCCN=C(N)N)NC(=O)[C@H](Cc1c[nH]c2ccccc12)NC(=O)[C@@H](N)Cc1ccccc1 [FWRWRWR]
- MIC [1]: ≥ 52.4 µM

Structure (SMILES): CC[C@H](C)[C@H](NC(=O)[C@@H](NC(=O)[C@@H](NC(=O)[C@H](CCCN=C(N)N)NC(=O)[C@H](Cc1cnc[nH]1)NC(=O)[C@H](Cc1ccccc1)NC(=O)[C@H](Cc1cnc[nH]1)NC(=O)CNC(=O)[C@H](CCCCN)NC(=O)[C@H](CO)NC(=O)[C@H](CCCCN)NC(=O)[C@H](CC(=O)O)NC(=O)[C@H](Cc1cnc[nH]1)NC(=O)[C@H](CC(=O)O)NC(=O)[C@H](CCCN=C(N)N)NC(=O)CNC(=O)[C@H](CCC(=O)O)NC(=O)[C@H](CCC(N)=O)NC(=O)[C@H](CCCCN)NC(=O)[C@H](CC(N)=O)NC(=O)[C@@H](N)Cc1cnc[nH]1)C(C)C)C(C)C)C(=O)N[C@@H](Cc1cnc[nH]1)C(=O)N[C@@H](Cc1cnc[nH]1)C(=O)N[C@@H](CCCCN)C(=O)NCC(=O)NCC(=O)N[C@@H](CCCCN)C(=O)N[C@@H](C)C(=O)N[C@@H](Cc1cnc[nH]1)C(=O)O [HNKQEGRDHDKSKGHFHRVVIHHKGGKAH]
- MIC [2]: 3.81 µM (≈ 12.9 µg/mL)
- MIC [3]: > 30 µM
- MIC [4]: 1.57 µM (≈ 5.29 µg/mL)
- MIC [5]: 2.2 µM (≈ 7.44 µg/mL)
- MIC [6]: > 30 µM
- MIC [7]: 2.17 µM (≈ 7.34 µg/mL)
- MIC [8]: 1.05 µM and 1.17 µM
- MIC [9]: 1.67 µM (≈ 5.64 µg/mL)

Structure (SMILES): CC[C@H](C)[C@H](N)C(=O)N[C@@H](CC(C)C)C(=O)N1CCC[C@H]1C(=O)N[C@@H](Cc1c[nH]c2ccccc12)C(=O)N[C@@H](CCCCN)C(=O)N[C@@H](Cc1c[nH]c2ccccc12)C(=O)N[C@@H](C)C(=O)N[C@@H](Cc1c[nH]c2ccccc12)C(=O)N[C@@H](Cc1c[nH]c2ccccc12)C(=O)N1CCC[C@H]1C(=O)N[C@@H](Cc1c[nH]c2ccccc12)C(=O)N[C@@H](CCCN=C(N)N)C(=O)N[C@@H](CCCN=C(N)N)C(N)=O [ILPWKWAWWPWRR]
- MIC [10]: 50 µM (≈ 94 µg/mL)
- MIC [11]: 25 µM (≈ 47 µg/mL)
- MIC [12]: 15 µM (≈ 28.2 µg/mL)
- MIC [13]: 10 µM (≈ 18.8 µg/mL)
- MIC [14]: 0.4 µM (≈ 0.752 µg/mL)

Structure (SMILES): CC[C@H](C)[C@H](N)C(=O)N[C@@H](CC(C)C)C(=O)N1CCC[C@H]1C(=O)N[C@@H](Cc1c[nH]c2ccccc12)C(=O)N[C@@H](CCCCN)C(=O)N[C@@H](Cc1c[nH]c2ccccc12)C(=O)N1CCC[C@H]1C(=O)N[C@@H](Cc1c[nH]c2ccccc12)C(=O)N[C@@H](Cc1c[nH]c2ccccc12)C(=O)N1CCC[C@H]1C(=O)N[C@@H](Cc1c[nH]c2ccccc12)C(=O)N[C@@H](CCCN=C(N)N)C(=O)N[C@@H](C)C(N)=O [ILPWKWPWWPWRA]
- MIC [14]: 0.8 µM (≈ 1.46 µg/mL)

Structure (SMILES): CC(C)[C@H](NC(=O)[C@@H](N)CCCCN)C(=O)N[C@@H](C)C(=O)N[C@@H](CCCCN)C(=O)N[C@@H](CCC(N)=O)C(=O)N[C@@H](CCC(=O)O)C(=O)N[C@@H](CCCCN)C(=O)N[C@@H](CCCCN)C(=O)N[C@@H](CCCCN)C(=O)N[C@@H](CCCCN)C(=O)N[C@@H](CCCCN)C(=O)N[C@H](C(=O)NCC(=O)N[C@@H](CCCN=C(N)N)C(=O)N[C@@H](C)C(=O)N[C@@H](CCCCN)C(=O)N[C@@H](CCCN=C(N)N)C(=O)N[C@@H](CCCN=C(N)N)C(=O)O)[C@@H](C)O [KVAKQEKKKKKTGRAKRR]
- MIC [15]: 18 µM (≈ 39 µg/mL)

Structure (SMILES): CC[C@H](C)[C@H](NC(=O)[C@H](C)NC(=O)[C@H](CC(C)C)NC(=O)[C@H](CS)NC(=O)[C@H](Cc1cnc[nH]1)NC(=O)[C@H](C)NC(=O)[C@H](C)NC(=O)[C@H](CS)NC(=O)[C@@H](N)CC(C)C)C(=O)N[C@@H](CCCN=C(N)N)C(=O)N[C@@H](CCCN=C(N)N)C(=O)N[C@@H](CCCN=C(N)N)C(N)=O [LCAAHCLAIRRR]
- MIC [16]: > 46.3 µM
- MIC [17]: 5.42 µM
- MIC [18]: 17.4 µM

Structure (SMILES): CC(C)C[C@H](N)C(=O)N1CCC[C@H]1C(=O)N[C@@H](Cc1c[nH]c2ccccc12)C(=O)N[C@@H](CCCCN)C(=O)N[C@@H](Cc1c[nH]c2ccccc12)C(=O)N1CCC[C@H]1C(=O)N[C@@H](Cc1c[nH]c2ccccc12)C(=O)N[C@@H](Cc1c[nH]c2ccccc12)C(=O)N1CCC[C@H]1C(=O)N[C@@H](Cc1c[nH]c2ccccc12)C(=O)N[C@@H](CCCN=C(N)N)C(=O)N[C@@H](CCCN=C(N)N)C(N)=O [LPWKWPWWPWRR]
- MIC [14]: 0.2 µM (≈ 0.359 µg/mL)

Structure (SMILES): CC[C@H](C)[C@H](NC(=O)[C@H](CCCN=C(N)N)NC(=O)[C@H](CCCN=C(N)N)NC(=O)[C@@H]1CCCN1C(=O)[C@@H]1CCCN1C(=O)[C@H](CCCN=C(N)N)NC(=O)[C@@H]1CCCN1C(=O)[C@H](CCCN=C(N)N)NC(=O)[C@@H]1CCCN1C(=O)[C@H](CC(C)C)NC(=O)[C@H](Cc1cnc[nH]1)NC(=O)[C@@H]1CCCN1C(=O)[C@@H]1CCCN1C(=O)[C@H](CCCCN)NC(=O)[C@H](CC(=O)O)NC(=O)[C@@H](N)C(C)C)C(=O)N[C@@H](Cc1ccc(O)cc1)C(=O)N[C@@H](CC(N)=O)C(=O)N[C@@H](CCCN=C(N)N)C(N)=O [VDKPPHLPRPRPPRRIYNR]
- MIC [19]: 2.03 µM (≈ 4.8 µg/mL)

Structure (SMILES): CC[C@H](C)[C@H](NC(=O)[C@H](CCCN=C(N)N)NC(=O)[C@H](CCCN=C(N)N)NC(=O)[C@@H]1CCCN1C(=O)[C@@H]1CCCN1C(=O)[C@H](CCCN=C(N)N)NC(=O)[C@@H](NC(=O)[C@H](CCCN=C(N)N)NC(=O)[C@@H]1CCCN1C(=O)[C@H](CC(C)C)NC(=O)[C@H](Cc1ccc(O)cc1)NC(=O)[C@@H]1CCCN1C(=O)[C@@H]1CCCN1C(=O)[C@H](CCCCN)NC(=O)[C@H](CC(=O)O)NC(=O)[C@@H](N)C(C)C)[C@@H](C)CC)C(=O)N[C@@H](Cc1ccc(O)cc1)C(=O)N[C@@H](CC(N)=O)C(=O)N[C@@H](CCCN=C(N)N)C(N)=O [VDKPPYLPRIRPPRRIYNR]
- MIC [19]: 1.37 µM (≈ 3.3 µg/mL)

Structure (SMILES): CC[C@H](C)[C@H](NC(=O)[C@H](CCCN=C(N)N)NC(=O)[C@H](CCCN=C(N)N)NC(=O)[C@@H]1CCCN1C(=O)[C@@H]1CCCN1C(=O)[C@H](CCCN=C(N)N)NC(=O)[C@@H]1CCCN1C(=O)[C@H](CCCN=C(N)N)NC(=O)[C@@H]1CCCN1C(=O)[C@H](CC(C)C)NC(=O)[C@H](Cc1ccc(O)cc1)NC(=O)[C@@H]1CCCN1C(=O)[C@@H]1CCCN1C(=O)[C@H](CCCCN)NC(=O)[C@H](CC(=O)O)NC(=O)[C@@H](N)Cc1c[nH]c2ccccc12)C(=O)N[C@@H](Cc1ccc(O)cc1)C(=O)N[C@@H](CC(N)=O)C(=O)N[C@@H](CCCN=C(N)N)C(N)=O [WDKPPYLPRPRPPRRIYNR]
- MIC [19]: 1.94 µM (≈ 4.8 µg/mL)
